Data set [1] relates to Vcam1, MCP1, Icam1 gene expression in suprarenal aorta. The data set can be described thus: Real-time PCR gene expression in mouse suprarenal aorta. Type of data set: in vivo. From the text: (§1) FIG. 2. […] (A) Quantification of gene expression levels in the mice suprarenal aorta region by real-time PCR (n=3 to 4). (B, C) Serum cytokines levels measured by ELISA (n=8 to 11). (D) FACS of single cells isolated from the mice suprarenal aorta region. Each sample is the pool of cells from three mice (n=3). (E, F) Quantification of the percentage of CD45+ leukocytes and CD64+, CD11c+M1-like macrophages in total cells from the FACS analysis. Ordinary one-way ANOVA followed by Tukey's test was performed for (A), (E) and (F). For ELISA in (B) and (C), to avoid the effect of the non-detected data point, a non-parametric Kruskal-Wallis test followed by Dunn's multiple comparisons was performed by adding zero to the missing data point. Data presented as mean±SEM. A p<0.05 for both the main test and post hoc test was considered statistically significant.
Ten weeks old male C57BL/6J mice were purchased from The Jackson Laboratory. The murine AAA model induced by AngII/PCSK9 gain-of-function mutation is well-established. After acclimation for 1 week, mice were fed a western diet (TD.88137, Envigo) and intraperitoneally injected with 2×1011 genomic copies of AAV-PCSK9.D377Y (AAV serotype 8, Penn Vector Core). Two weeks later, each mouse was subcutaneously implanted with two osmotic pumps (Model #2004, Alzet). One was loaded with AngII (#H-1706, Bachem), releasing at a rate of 1,500ng/kg/min, while the other one was loaded with PEG-400, OA or NO2—OA at a delivery rate of 5 mg/kg/day for OA or NO2—OA. After 4-weeks infusion, mice were euthanized and the maximal outer diameter of the suprarenal aorta was assessed with a digital caliper by a third person blinded to the treatment. Suprarenal aortas with a maximal diameter ≥50% larger than standard size (≥1.2 mm) were considered as abdominal aortic aneurysms. […]
Mice suprarenal aortas were collected after the measurement of their diameter. […] Gene expression was quantified in triplicates by quantitative real-time PCR (qPCR) using IQ SYBR Green Supermix (#1708882, Bio-Rad) with the indicated gene primers.
For orientation: Quantitative PCR measures a nucleic acid by following its amplification.

The test system of the next data set is MMP2. The data set can be described thus: Gelatin zymography in BMDMs, MMP2. The conditions noted are these: 2.5 μM, 12 h. Type of data set: cell-based, mouse. The protocol:
FIG. 4. NO2—OA inhibits PGE2-dependent EP4 cAMP downstream signaling. (A) Three parameters nonlinear regression of EP4 global fitting dose-response curve. […] (B) HTRF assay of cAMP-Gs coupled receptor. […] (D) Representative figure of gelatin zymography indicating MMP 2/9 activity. BMDMs were incubated with L-902,688 (100 nM) plus vehicle, OA (2.5 μM) or NO2—OA (2.5 μM) for 12 h, and MMP 2&9 activity was measured by gelatin zymography. For (A) and (B), three or four parameters, global or separate fitting, constraints, and the significance of EC50 were determined in Prism. Data presented as mean±SEM. A p<0.05 was considered statistically significant.
Freshly differentiated BMDMs were cultured in the bone marrow macrophage-differentiation media until 80% confluence. […] Then, the supernatant was collected and centrifuged to remove any residual debris. Measurement of MMP2 and MMP9 activity was performed by running the supernatant (using detergent-free loading buffer) in 1% gelatin gel, followed by staining with Coomassie blue.

The test system of data set [2] is oxLDL-induced Il1b and Mmp9 expression in BMDMs. The data set can be described thus: Real-time PCR of oxLDL-induced pro-inflammatory genes in BMDMs. Type of data set: cell-based, mouse. The conditions noted are these: BMDMs, vs control. The procedure:
FIG. 3. NO2—OA prevents oxLDL-induced NFκB activation and pro-inflammatory cytokine production. Primary BMDMs were pretreated with vehicle, OA (2.5 μM) or NO2—OA (2.5 μM) for 1 h, followed by treatment of oxLDL (50 to 100 μg/ml) for the indicated times. (A, B) Nuclear (A) and cytoplasmic protein (B) fractions were isolated 1 h after oxLDL treatment and subjected to western blot with antibodies against p65, lamin a/c (nuclear marker) and GAPDH (cytosolic marker). Representative western blot images of three independent experiments are shown. (C) Quantification of the p65 nuclear to cytoplasmic ratio by image studio (normalized by the internal control, n=3). (D-F) Following 8 h of oxLDL treatment, levels of IL6, MCP1 and TNFα in the cell medium were measured by ELISA (n=4). (G) Real-time PCR quantification of gene expression levels of IL1b and Mmp9 in total mRNA extracted from the BMDMs. (C) Ordinary one-way ANOVA followed by Tukey's test was performed. As of (D-F), the basal level contains several non-detectable values, so ordinary one-way ANOVA followed by correction of FDR were performed for the oxLDL-treated groups only. Ordinary one-way ANOVA followed by Tukey's test was performed for (G). Data presented as mean±SEM. A p<0.05 for both the main test and post hoc test was considered statistically significant.
Mice suprarenal aortas were collected after the measurement of their diameter. Human aortic aneurysm samples were obtained from the Department of Cardiac Surgery at the University of Michigan. Samples from humans and mice were snap-frozen in liquid nitrogen for later processing. RNA from tissue was extracted using TRIzol (#15596018, Invitrogen). RNA from cells was isolated with the RNeasy Mini Kit (#74106, QIAGEN). SuperScript™ III First-Strand Synthesis System (#18080051, Invitrogen) was used to reverse-transcribe mRNA into cDNA. Gene expression was quantified in triplicates by quantitative real-time PCR (qPCR) using IQ SYBR Green Supermix (#1708882, Bio-Rad) with the indicated gene primers.

Data set [3] relates to LPS-induced macrophage activation. The data set can be described thus: PGE2-mediated protection against LPS-induced macrophage activation. The format is cell-based.
The subject of a further data set is circulating MCP1 and IL6. The data set can be described thus: Circulating cytokine ELISA in AAA model mice. Type of data set: in vivo, mouse.
From the text: as §1
MCP1, TNFα and IL6 levels in mouse plasma were measured by ELISA performed by the Cancer Center Immunology Core at the University of Michigan.
(In general: An ELISA detects its analyte on a solid surface through an enzyme-linked reagent.)

The conditions of data set [4]: cited from earlier work.

Turning to `CCCCCCCCC(=CCCCCCCCC(=O)O)[N+](=O)[O-]` [NO2—OA, 10-nitro-octadec-9-enoic acid], the “expression of intercellular adhesion molecule 1 (Icam1)” value in data set [1] (vs vehicle) is given as “not statistically significant”. Besides, in data set [1] (vs vehicle control), the “expression of MCP1 gene” value was “significantly decreased” and the “expression of vascular cell adhesion protein 1 (Vcam1) gene” value is “significantly decreased”. Besides, the “MMP2 activity (gelatin zymography)” value in the data set with MMP2 is recorded as “no significant changes”. In addition, in data set [2], the “oxLDL-induced expression of Il1b” value is “significantly decreased” and the “oxLDL-induced expression of Mmp9” value is given as “significantly decreased”. The “PGE2-mediated protective effect against LPS-induced macrophage activation (expression of Tnf, Il6, Ccl4)” value in data set [3] is on record as “does not suppress”. In addition, in the data set on circulating MCP1 and IL6, the “protein level of circulating IL6” value was “significantly decreased” and the “protein level of circulating MCP1” value is “significantly decreased”. Besides, in data set [4] (administration in humans), the “Nrf2-regulated genes and heat shock response in peripheral blood mononuclear cells” value is on record as “induces”. Besides, in data set [4] (human volunteers), the “circulating interleukin 6 (IL6) level” value was “decreased” and the “circulating monocyte chemoattractant protein 1 (MCP1) level” value is “decreased”. The “safety in Phase 1 human study” value in data set [4] (within a therapeutic window 25-450 mg/day) is listed as “safe”.

The values are drawn from patent publication US12728111B2, “Electrophilic compounds and electrophilic prodrugs for treating aneurysm” (University of Pittsburgh—Of the Commonwealth System of …, priority 2020, dated 2026).
